Measured values as given in patent publication US6350859B1, “Class BI and CI scavenger receptors” (Massachusetts Institute of Technology, priority 1994, dated 2002).

Columns and labels:
haSR-BI [1] = biological target: T1, haSR-BI (Cricetulus griseus, UniProt Q60417); experiment: [3H]-liposome binding at 4° C. to haSR-BI in ldlA[haSR-BI] cells; design: species or system hamster; details: EDTA 1-10 mM
T1 construct: expressed in transfected cells
T1 sequence (Q60417 1-509): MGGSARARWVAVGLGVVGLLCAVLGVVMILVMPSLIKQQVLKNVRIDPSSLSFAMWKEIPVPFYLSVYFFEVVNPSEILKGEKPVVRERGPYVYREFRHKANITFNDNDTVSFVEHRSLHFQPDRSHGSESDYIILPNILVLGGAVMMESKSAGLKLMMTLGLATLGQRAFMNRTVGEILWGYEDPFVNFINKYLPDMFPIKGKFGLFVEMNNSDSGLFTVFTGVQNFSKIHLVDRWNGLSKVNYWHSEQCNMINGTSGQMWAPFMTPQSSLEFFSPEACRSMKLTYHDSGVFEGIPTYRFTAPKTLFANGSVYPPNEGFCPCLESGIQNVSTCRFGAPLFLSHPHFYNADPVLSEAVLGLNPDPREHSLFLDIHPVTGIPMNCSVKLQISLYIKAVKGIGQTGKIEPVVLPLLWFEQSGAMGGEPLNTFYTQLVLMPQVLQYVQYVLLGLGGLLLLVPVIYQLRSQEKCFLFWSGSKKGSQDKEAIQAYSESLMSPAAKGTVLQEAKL
Description: Unilamellar liposomes were made by extrusion through policarbonate membranes (Szoka et al., 1980). Phospholipid liposomes were prepared containing the indicated phospholipid, phosphatidycholine, and free cholesterol in a molar ratio of 1:1:1. The lipids were mixed in chloroform and dried by rotary evaporation for 30 min. For preparation of radiolabeled liposomes, 50-75 μCi of [^3H]DPPC(62 Ci/mmol) were added to the lipid mixtures before drying. The dried lipids were resuspended in 150 mM NaCl, 0.1 mM EDTA, 10 mM HEPES, pH 7.5 (Buffer A). […] The final phospholipid concentration was determined by the method of Bartlett (1959). The average diameters of unlabeled liposomes, which were determined from either two or three independent preparations using light scattering with a Coulter N4 plus light scatterer apparatus (Coulter Electronics Inc., Hialeah, Fla.), were: PS, 105; PC, 114: PA, 125; PE, 129; P1, 113; and SM, 131 nm. The number of phospholipid molecules/PS liposome was calculated as follows. […]
Ligand Binding Assays. […] The cells were then solubilized with […], and radioactivity and protein determinations were made as described above. […] The binding values are expressed as nanograms of bound ^125I-labeled protein or ng of total phospholipids from ^3H-labeled liposomes/milligram of cell protein. […]

Var-261 cells [2] = experiment: 125I-AcLDL degradation and binding plus uptake at 37° C. in Var-261 cells; type: cell-based, Chinese hamster; details: for competition for 125I-AcLDL degradation: 125I-AcLDL 5 μg/ml, 5 hr
dSR-CI = experiment: Competitive inhibition of 125I-AcLDL degradation activity by CHO[dSR-CI]-2.6a cells; type: cell-based, Drosophila melanogaster
Description: (§1) Scavenger receptor activities at 37° C. were measured by ligand binding, uptake and degradation assays as described by Krieger, 1983; Freeman et al., 1991). Although binding and uptake at 37° C. were determined separately using dextran-sulfate to free surface bound lipoproteins from the cells as described for LDL receptor assays by Goldstein et al., 1983; Basu et al., 1983 Science 219, 871-873), this method for separating bound from internalized ligand for ^125I-AcLDL and scavenger receptors has not been independently validated. Accordingly, the values for binding and uptake were combined and are presented as binding plus uptake observed after a 5 hour incubation and are expressed as ng of ^125I-AcLDL protein per 5 hr per mg cell protein. Degradation activity is expressed as ng of ^125I-AcLDL protein degraded in 5 hours per mg of cell protein. The specific, high affinity values presented represent the differences between the results obtained in the presence (single determinations) and absence (duplicate determinations) of excess unlabeled competing ligand (75 to 200 μg/ml of M-BSA). Cell surface 4° C. binding was assayed using either method A or method B as indicated. In method A, cells were prechilled on ice for 15 min, re-fed with ^125I-AcLDL in ice-cold medium B supplemented with 10% (v/v) fetal bovine serum, with or without 75-200 μg/ml unlabeled M-BSA, and incubated 2 hr at 4° C. on a shaker. Cells were then washed rapidly three times with Tris wash buffer (50 mM Tris-HCl, 0.15M NaCl, pH 7.4) containing 2 mg/ml BSA, followed by two 5 min washes, and two rapid washes with Tris wash buffer without BSA. The cells were solubilized in 1 ml of 0.1N NaOH for 20 min at room temperature on a shaker, 30 μl were removed for protein determination, and the radioactivity in the remainder was determined using a LKB gamma counter. Method B differed from method A in that the cells were prechilled for 45 minutes, the medium contained 10 mM HEPES and 5% (v/v) human lipoprotein-deficient serum rather than fetal bovine serum, and the cell-associated radioactivity released by treatment with dextran sulfate was measured as described by Krieger, 1983; Freeman et al., 1991).
Competitive binding of AcLDL was performed to more accurately define the specificity of the AcLDL binding.

haSR-BI [3] = biological target: T1, haSR-BI; experiment: 125I-AcLDL binding at 4° C. to haSR-BI in transfected COS or ldlA cells; design: species or system hamster; details: ldlA[haSR-BI] cells, 125I-AcLDL 5 μg/ml, FIG. 3B: M-BSA 10, poly G 500, fucoidin 200, carrageenan 200, LDL 500 μg/ml
Description: as §1
HDL and VLDL binding to SR-BI and CD36 were conducted as described for LDL and modified LDL.
(§2) To measure binding of AcLDL, on day 1, COS cells were transfected with the expression vector for the hamster scavenger receptor type BI (haSR-BI). On day 2 the transfected COS cells were plated in 6-well dishes (1×10^6 cells/well in medium A plus 1 mM sodium butyrate). […] On day 3 the binding of ^125I-AcLDL (5 μg/ml) at 4° C. in the absence or presence of the indicated competitors was measured using Method A. The values shown in the Figures represent the averages of duplicate determinations. […]

CD36 = biological target: T2, CD36 (Homo sapiens, UniProt P16671); experiment: 125I-AcLDL degradation at 37° C. in COS cells transfected with CD36, competition; type: cell-based; details: 5 hr, FIG. 4B: M-BSA 4, AcLDL 500, fucoidin 200, poly I 500, poly G 500, ReLPS 250 μg/ml
T2 construct: expressed in transfected cells; host or cells: COS cells (transient)
T2 sequence (P16671 whole entry): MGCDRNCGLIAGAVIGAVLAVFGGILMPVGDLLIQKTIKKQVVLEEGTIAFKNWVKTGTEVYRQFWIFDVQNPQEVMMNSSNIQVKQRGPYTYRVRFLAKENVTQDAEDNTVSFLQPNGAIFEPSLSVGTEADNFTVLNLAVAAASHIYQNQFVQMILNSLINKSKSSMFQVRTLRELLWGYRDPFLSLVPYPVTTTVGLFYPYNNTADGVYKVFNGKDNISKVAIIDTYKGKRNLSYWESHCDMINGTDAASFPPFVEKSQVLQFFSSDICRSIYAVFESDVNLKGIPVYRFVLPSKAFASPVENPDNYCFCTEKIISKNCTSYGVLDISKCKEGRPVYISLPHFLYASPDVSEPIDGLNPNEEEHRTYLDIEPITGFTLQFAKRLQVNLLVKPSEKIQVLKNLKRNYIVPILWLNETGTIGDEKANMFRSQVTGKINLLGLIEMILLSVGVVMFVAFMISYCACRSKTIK
Description: as §1
COS cells were transfected on day 1 with a plasmid encoding CD36. On day 2 the transfected cells were set in 6-well dishes at 1×10^6 cells/well in medium A plus 1 mM sodium butyrate. On day 3, 125I-AcLDL binding at 4° C. was measured. […] On day 3, degradation of ^125I-AcLDL (5 μg/ml) was measured after a 5 hr incubation at 37° C. in the absence (duplicate determinations) or presence (duplicate determinations) of the indicated competitors. […]

Var-261 cells [4] = experiment: 125I-AcLDL binding at 4° C. to Var-261 cells, competition; design: species or system Chinese hamster; details: 125I-AcLDL 5 μg/ml, FIG. 3B: M-BSA 10, poly G 500, fucoidin 200, carrageenan 200, LDL 500 μg/ml
Description: as §1, §2

[5] = biological target: T3, murine type II macrophage scavenger receptor (mSR-AII) (Mus musculus, UniProt P30204); experiment: 125I-AcLDL degradation at 37° C. in COS cells expressing murine scavenger receptor type II; type: cell-based; details: for competition for 125I-AcLDL degradation: COS[mSR-AII] cells, 125I-AcLDL 5 μg/ml, 5 hr, 37° C.
T3 construct: expressed in transfected cells; host or cells: COS cells (transient)
T3 sequence (P30204 1-354 isoform P30204-2): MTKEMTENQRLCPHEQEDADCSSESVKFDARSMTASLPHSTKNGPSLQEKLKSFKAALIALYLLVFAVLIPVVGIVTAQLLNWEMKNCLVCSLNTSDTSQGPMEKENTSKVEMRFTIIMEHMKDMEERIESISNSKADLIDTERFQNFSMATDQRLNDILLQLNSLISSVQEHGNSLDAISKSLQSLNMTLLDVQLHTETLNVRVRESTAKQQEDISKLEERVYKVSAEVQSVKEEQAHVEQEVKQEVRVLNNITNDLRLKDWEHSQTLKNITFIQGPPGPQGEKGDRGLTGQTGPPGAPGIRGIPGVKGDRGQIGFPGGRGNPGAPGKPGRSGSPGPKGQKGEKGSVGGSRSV
Description: as §1, with “In method A, cells were prechilled on ice for 15 min, re-fed with ^125I-AcLDL in ice-cold medium B supplemented with 10% (v/v) fetal bovine serum, with or without 75-200 μg/ml unlabeled M-BSA, and incubated 2 hr at 4° C. on a shaker. Cells were then washed rapidly three times with Tris wash buffer (50 mM Tris-HCl, 0.15M NaCl, pH 7.4) containing 2 mg/ml BSA, followed by two 5 min washes, and two rapid washes with Tris wash buffer without BSA.” left out
COS cells were transfected on day 1 with murine scavenger receptor type II. […] On day 3, ^125I-AcLDL (5 μg/ml) in medium B plus 10% fetal bovine serum was added to the cells and degradation was measured after a 5 hr incubation at 37° C. in the absence (duplicate determinations) or presence (duplicate determinations) of the indicated amounts of polyanions. […]

Row | Molecule | inhibition of 125I-AcLDL binding (haSR-BI [3]) | inhibition of receptor activity, 125I-AcLDL degradation (CD36) | Degradation (% No Competitor) (dSR-CI; competitor 400 μg/ml) | competition for 125I-AcLDL degradation (Var-261 cells [2]; 37° C.) | inhibition of 125I-AcLDL binding (Var-261 cells [4]) | also measured
1 | O=C(O)CN(CCN(CC(=O)O)CC(=O)O)CC(=O)O [EDTA] | – | – | – | – | – | effect on PS liposome binding (haSR-BI [1]): not inhibited
2 | CCN(CC)CCCC(C)Nc1ccnc2cc(Cl)ccc12 (stereo not drawn) [chloroquine] | – | – | – | – | – | effect on 125I-AcLDL binding plus uptake (Var-261 cells [2]; 37° C.): not; effect on 125I-AcLDL degradation (Var-261 cells [2]; 37° C.): inhibited
3 | Dextran | – | – | 100 | – | – | –
4 | M-BSA: maleylated BSA | inhibited | inhibited | 6.7 | inhibited | inhibited | –
5 | Poly D-glutamic acid | – | – | 34 | – | – | –
6 | carrageenan | not inhibited | – | – | – | competitors | –
7 | dextran sulfate | – | – | – | – | – | Degradation (% No Competitor) (dSR-CI; competitor concentration not given): 4.2 % No Competitor

Further lines, with some results ahead:

Row | inhibition of 125I-AcLDL binding (haSR-BI [3]) | inhibition of receptor activity, 125I-AcLDL degradation (CD36) | Molecule | Degradation (% No Competitor) (dSR-CI; competitor 400 μg/ml) | competition for 125I-AcLDL degradation (Var-261 cells [2]; 37° C.) | inhibition of 125I-AcLDL binding (Var-261 cells [4]) | also measured
8 | not inhibited | not | Polyriboguanylic acid [poly G] | – | effective competitors | competitors | competition for 125I-AcLDL degradation [5]: effective competitors
9 | not inhibited | not | fucoidin | – | effective competitors | competitors | competition for 125I-AcLDL degradation [5]: effective competitors
10 | – | not | polyriboinosinic acid [poly I] | 2.7 | – | – | inhibition of 125I-AcLDL degradation (Var-261 cells [2]; competitor at 400 μg/ml): 34%; inhibition of 125I-AcLDL degradation ([5]; class A scavenger receptors, competitor at 2.5 μg/ml): greater than 50%
